One test concerns 5637 (Bladder). In words: IC50 Aplidine Family panel (MTT/MTS). The following applies: read-out: IC50 (Molar) Bladder 5637. The format is cell-based.
A further test deals with MX-1 (Breast). In words: IC50 Aplidine Family panel (MTT/MTS). As to conditions: MTT; read-out: IC50 (Molar) Breast MX-1. It is filed as cell-based.
Another test has as its system HT-29 (Colon). In words: IC50 Aplidine Family panel (MTT/MTS). As to conditions: Homo sapiens, HT-29, read-out: IC50 (Molar) Colon HT-29. It is filed as cell-based, human.
The test system of a further test is Hs746t (Gastric). In words: IC50 Aplidine Family panel (MTT/MTS). The format is cell-based. The following applies: Homo sapiens, Hs746T, read-out: IC50 (Molar) Gastric Hs746t.
The next test has as its system SK-HEP-1 (Liver). In words: IC50 Aplidine Family panel (MTT/MTS). The following applies: Homo sapiens, SK-HEP1, read-out: IC50 (Molar) Liver SK-HEP-1. The format is cell-based.
For the next test, the system named is A549 (NSCL). In words: IC50 Aplidine Family panel (MTT/MTS). It is filed as cell-based, human. As to conditions: Homo sapiens, A549; MTT; read-out: IC50 (Molar) NSCL A549.
The subject of another test is SK-OV-3 (Ovary). In words: IC50 Aplidine Family panel (MTT). It is filed as cell-based. The following applies: Homo sapiens, SK-OV-3, read-out: IC50 (Molar) Ovary SK-OV-3.
The next test concerns PANC-1 (Pancreas). In words: IC50 Aplidine Family panel (MTT). As to conditions: Homo sapiens, PANC-1, read-out: IC50 (Molar) Pancreas PANC-1. It is filed as cell-based.
Another test has as its system FADU (Pharynx). In words: IC50 Aplidine Family panel (MTT/MTS). The following applies: Homo sapiens, FaDu, read-out: IC50 (Molar) Pharynx FADU. It is filed as cell-based.
A further test concerns 786-O (Renal). In words: IC50 Aplidine Family panel (MTT). The format is cell-based. The following applies: Homo sapiens, 786-0, read-out: IC50 (Molar) Renal 786-O.
The subject of a further test is SW 694 (Fibrosarcoma). In words: IC50 Aplidine Family panel (MTT/MTS). The format is cell-based. As to conditions: MTT; read-out: IC50 (Molar) Fibrosarcoma SW 694.
Test [1] relates to HL-60 (ALL, Promyelocytic leukemia). In words: IC50 Aplidine Family panel (MTT/MTS). It is filed as cell-based. As to conditions: Homo sapiens, HL-60; MTT; read-out: IC50 (Molar) ALL (Promyelocytic leukemia) HL-60.
The subject of test [2] is Molt 3 (ALL, Acute lymphobalstic). In words: IC50 Aplidine Family panel (MTT/MTS). The format is cell-based. The following applies: Homo sapiens, MOLT-3, read-out: IC50 (Molar) ALL (Acute lymphobalstic) Molt 3.
Test [3] has as its system K562 (CML, Chronic myelogenous). In words: IC50 Aplidine Family panel (MTT/MTS). The format is cell-based. As to conditions: Homo sapiens, K562, read-out: IC50 (Molar) CML (Chronic myelogenous) K562.
A further test deals with CCRF-SB (ALL, B-cell). In words: IC50 Aplidine Family panel (MTT). It is filed as cell-based. The following applies: Homo sapiens, CCRF-SB, read-out: IC50 (Molar) ALL (B-cell) CCRF-SB.
In test [4] the test system is ARH-77 (Leukemia, Plasma cell). In words: IC50 Aplidine Family panel (MTT). It is filed as cell-based. As to conditions: Homo sapiens, read-out: IC50 (Molar) Leukemia (Plasma cell) ARH-77.
The next test relates to H9 (Lymphoma, T cell). In words: IC50 Aplidine Family panel (MTT/MTS). It is filed as cell-based. The following applies: T-cell; MTT; read-out: IC50 (Molar) Lymphoma (T cell) H9.
For test [5], the system named is Hut 78 (Lymphoma, Cutaneous T cell). In words: IC50 Aplidine Family panel (MTT). The following applies: Homo sapiens, HuT78, read-out: IC50 (Molar) Lymphoma (Cutaneous T cell) Hut 78. It is filed as cell-based.
The test system of test [6] is MC116 (Lymphoma, undifferentiated). In words: IC50 Aplidine Family panel (MTT/MTS). The following applies: Homo sapiens, MC116, read-out: IC50 (Molar) Lymphoma (undifferentiated) MC116. The format is cell-based.
Test [7] concerns U-937 (Lymphoma, Histiocytic). In words: IC50 Aplidine Family panel (MTT). The format is cell-based. As to conditions: Homo sapiens, U-937, read-out: IC50 (Molar) Lymphoma (Histiocytic) U-937.
The subject of test [8] is P3HR1 (Lymphoma, Burkitts ascites). In words: IC50 Aplidine Family panel (MTT). The format is cell-based. The following applies: Homo sapiens, P3HR-1, read-out: IC50 (Molar) Lymphoma (Burkitts ascites) P3HR1.
For a further test, the system named is P388 Murine lymphoma. In words: Cytotoxicity IC50 (after Berjeron et al). The following applies: Mus musculus, P388, read-out: Cytotoxicity of [aa3]-aplidine Congeners IC50 (Molar) P388.
Test [9] concerns A549 human lung carcinoma. In words: Cytotoxicity IC50 (after Berjeron et al). As to conditions: Homo sapiens, A549, read-out: Cytotoxicity of [aa3]-aplidine Congeners IC50 (Molar) A549.
Excerpt: (§1) Methodology: after Berjeron et al, Biochem and Bioph Res. Comm., 1984, 121, 3, 848-854.
(§2) P388=Murine lymphoma. A549=human lung carcinoma. HT-29=human colon carcinoma. MEL-28=human melanoma.
(§3) A549=human lung carcinoma. HT-29=human colon carcinoma. MEL-28=human melanoma.
Test [10] concerns HT-29 human colon carcinoma. In words: Cytotoxicity IC50 (after Berjeron et al). The following applies: Homo sapiens, HT-29, read-out: Cytotoxicity of [aa3]-aplidine Congeners IC50 (Molar) HT29.
Excerpt: as §1, §2, §3
The next test concerns MEL-28 human melanoma. In words: Cytotoxicity IC50 (after Berjeron et al). As to conditions: Homo sapiens, SK-MEL-28, read-out: Cytotoxicity of [aa3]-aplidine Congeners IC50 (Molar) MEL28.
A further test relates to LNCAP (Prostate). In words: IC50 Aplidine Family panel (MTS). It is filed as cell-based. The following applies: Homo sapiens, MTS (new), read-out: IC50 (Molar) Prostate LNCAP.
In a further test the test system is Mel-28 (Melanoma). In words: IC50 Aplidine Family panel (MTS). It is filed as cell-based. The following applies: Homo sapiens, SK-MEL-28; MTS (new); read-out: IC50 (Molar) Melanoma Mel-28.
A further test relates to CHSA (Chondrosarcoma). In words: IC50 Aplidine Family panel (MTS). It is filed as cell-based. As to conditions: MTS (new); read-out: IC50 (Molar) Chondrosarcoma CHSA.
In a further test the test system is OSA-FH (Osteosarcoma). In words: IC50 Aplidine Family panel (MTS). It is filed as cell-based. As to conditions: MTS (new); read-out: IC50 (Molar) Osteosarcoma OSA-FH.
The subject of test [11] is solid tumors like colon, chondrosarcoma and osteosarcoma. In words: MTS assay, specificity against solid tumors. The format is cell-based. As to conditions: with respect to didemnin B (III). On the technique in general: Tetrazolium dyes change colour on reduction, which living cells bring about.

Usually IC50 stands for the concentration that inhibits the measured activity by half.

Like-named read-outs stand apart in the source and are kept apart here. *1 amine or outer side, *2 acyl side, *3 side chain or, on linkers, in order; H or OH if unused. Where a SMILES comes first, the peptide text is derived from it. Bridges are numbered along the chain shown (N, C = ends). [ ]: non-standard residue; d: D form. The star is where a group is joined. X1 = CC[C@H](C)[C@@H](N[*:1])[C@@H](O)CC(=O)O[C@H](C(=O)[C@H](C)C(=O)[*:2])C(C)C; X2 = CC[C@H](C)[C@@H](N[*:1])[C@@H](O)CC(=O)[*:2]; NMeY = CN[C@@H](Cc1ccc(O)cc1)C(=O)O; dNMeL = CN[C@H](CC(C)C)C(=O)O; Hiv = CC(C)[C@H](O)C(=O)O; Pyruvoyl = CC(=O)C(=O)*

Excerpt for MEL-28 human melanoma: as §1, §2, §3
Excerpt for P388 Murine lymphoma: as §1, §2, §3

In the case of `CC[C@H](C)[C@H]1NC(=O)[C@@H](NC(=O)[C@@H](CC(C)C)N(C)C(=O)[C@@H]2CCCN2C(=O)C(C)=O)[C@@H](C)OC(=O)[C@H](Cc2ccc(OC)cc2)N(C)C(=O)[C@@H]2CCCN2C(=O)[C@H](CC(C)C)NC(=O)[C@@H](C)C(=O)[C@H](C(C)C)OC(=O)C[C@@H]1O` [SAPL1, Aplidine] (Pyruvoyl-P[dNMeL]T[X1]LP[NMeY](Me); ester 3-C), the IC50 with 5637 (Bladder) (MTT) is 35.9 nM; in the test on MX-1 (Breast), 167 nM; with HT-29 (Colon) (MTT) it was 687 nM; in the test with Hs746t (Gastric) (MTT) it was 25.2 nM; in the test with SK-HEP-1 (Liver) (MTT), 94.4 nM; with A549 (NSCL), 24000 nM. Moreover, the IC50 in the test with SK-OV-3 (Ovary) amounted to 72 nM; with PANC-1 (Pancreas), 170 nM; with FADU (Pharynx) (MTT), 72.9 nM; in the test on 786-O (Renal), 83.1 nM; in the test with SW 694 (Fibrosarcoma) it was 1490 nM; in test [1], 78.9 nM. For the same compound, the IC50 in test [2] (MTT) was 595 nM; in test [3] (MTT), 572 nM; with CCRF-SB (ALL, B-cell), 472 nM; in test [4], 178 nM; in the test with H9 (Lymphoma, T cell) it was 525 nM; in test [5], 44.7 nM. Moreover, the IC50 was 921 nM in test [6] (MTT); 562 nM in [7]; 53.4 nM in [8]; 0.18 nM in the test with P388 Murine lymphoma; 0.18 nM in test [9]; 0.45 nM in test [10]. In the test on MEL-28 human melanoma, the IC50 was determined as 0.45 nM.
As for `CC[C@H](C)[C@H]1NC(=O)[C@@H](NC(=O)[C@@H](CC(C)C)N(C)C(=O)[C@@H]2CCCN2C(=O)C(C)=O)[C@@H](C)OC(=O)[C@H](Cc2ccc(OC)cc2)N(C)C(=O)[C@@H]2CCCN2C(=O)[C@H](CC(C)C)NC(=O)[C@H](C(C)C)OC(=O)C[C@@H]1O` [SHPL1, [Hiv]^3-Aplidine] (Pyruvoyl-P[dNMeL]T[X2][Hiv]LP[NMeY](Me); ester 3-C), the IC50 was determined as 90.2 nM with 5637 (Bladder) (MTS (new)); 10.2 nM in the test with HT-29 (Colon) (MTS (new)); 71.6 nM in the test on Hs746t (Gastric) (MTS (new)); 265 nM in the test on SK-HEP-1 (Liver) (MTS (new)); 37.1 nM with FADU (Pharynx) (MTS (new)); 14.6 nM in the test on LNCAP (Prostate). Moreover, the IC50 was 486 nM in the test on Mel-28 (Melanoma); 3.45 nM in the test with CHSA (Chondrosarcoma); 5.89 nM in the test on OSA-FH (Osteosarcoma); 17.7 nM in test [2] (MTS (new)); 521 nM in test [3] (MTS (new)); 382 nM in test [6] (MTS (new)). In addition, the IC50 (in the test on P388 Murine lymphoma; in [9]; in [10]; with MEL-28 human melanoma) was 0.474 nM each time. In test [11], the “specificity against solid tumors in the MTS assay” value is “more specific against solid tumors like colon, chondrosarcoma and osteosarcoma”.

(Values after patent US20080009435A1, “Synthetic methods for aplidine and new antitumoral derivatives, methods of making and using them” (Pharma Mar, S.A., a Spain corporation, priority 2000, published 2008).)
